Patent US12681015B2, “Methods for predicting patient response to DMARDs” (Queen Mary University of London, priority 2019, dated 2026)
Entries after “also recorded” stand apart in the source; their conditions may differ.

Legend:
[1] = system: inflammatory arthritis in Alox15-/- mice; assay: K/BxN serum inflammatory arthritis in Alox15-/- mice treated with MTX; format: in vivo
Protocol: (§1) Inflammatory arthritis was initiated in wild type (WT) and Alox15^−/− deficient mice by the administration of arthritogenic serum on days 0 and 2. […] Disease severity was assessed by measuring (A) disease activity using a 26-point clinical score (B) body weight and (C) paw edema. (D) Eight days post disease initiation joints were collected, leukocytes were liberated and the number of infiltrated leukocytes was determined using flow cytometry and fluorescently labelled antibodies. Results for A-C are mean±SEM and for D are percentage of vehicle n=7 mice per group. Results for D are representative of n=8 mice per group. Experiments were conducted on two distinct occasions. * p<0.05 vs Vehicle group for A-C using two-way ANOVA, for D using one-sample t test.
(§2) Inflammatory arthritis was initiated in wild type (WT) and Alox15^−/− mice by injecting K/BxN serum via intraperitoneal injection on days 0 and 2. […] Blood and joints were collected on day 8 and the concentrations of inflammatory eicosanoids in (A) plasma and (B) joints were determined using LC-MS/MS profiling.
(§3) Plasma was obtained from peripheral blood of healthy volunteers, patients and mouse following centrifugation at 1500×g for 10 min at room temperature. Paws were collected and immediately transferred to liquid nitrogen prior to homogenization in 1 ml ice cold MeOH and homogenized using a glass dounce. All samples for LC-MS/MS-based profiling were extracted using solid-phase extraction columns as in Walker, M. E., Souza, P. R., Colas, R. A. & Dalli, J. “13-Series resolvins mediate the leukocyte-platelet actions of atorvastatin and pravastatin in inflammatory arthritis.” FASEB J 31, 3636-3648 (2017), the contents of which are incorporated herein by reference. Prior to sample extraction, deuterated internal standards, representing each region in the chromatographic analysis (500 pg each) were added to facilitate quantification. Samples were kept at −20° C. for a minimum of 45 min to allow protein precipitation. Supernatants were subjected to solid phase extraction, methyl formate fraction collected, brought to dryness and suspended in phase (methanol/water, 1:1, vol/vol) for injection on a Shimadzu LC-20AD HPLC and a Shimadzu SIL-20AC autoinjector, paired with a QTrap 5500 or QTrap 6500 plus (Sciex). An Agilent Poroshell 120 EC-C18 column (100 mm×4.6 mm×2.7 μm) was kept at 50° C. and mediators eluted using a mobile phase consisting of methanol/water/acetic acid of 20:80:0.01 (vol/vol/vol) that was ramped to 50:50:0.01 (vol/vol/vol) over 0.5 min and then to 80:20:0.01 (vol/vol/vol) from 2 min to 11 min, maintained till 14.5 min and then rapidly ramped to 98:2:0.01 (vol/vol/vol) for the next 0.1 min. This was subsequently maintained at 98:2:0.01 (vol/vol/vol) for 5.4 min, and the flow rate was maintained at 0.5 ml/min. QTrap 5500 or QTrap 6500 plus were operated using a multiple reaction monitoring method as in Walker, M. E., Souza, P. R., Colas, R. A. & Dalli, J. “13-Series resolvins mediate the leukocyte-platelet actions of atorvastatin and pravastatin in inflammatory arthritis.” FASEB J 31, 3636-3648 (2017), the contents of which are incorporated herein by reference. […]

[2] = system: SPM formation in human peripheral blood; assay: Human whole blood incubation with MTX, plasma SPM by LC-MS/MS lipid mediator profiling; format: cell-based; conditions: MTX 100 nM, 37° C., 45 min
Protocol: Plasma was obtained by centrifugation and peripheral blood SPM concentrations were determined using LC-MS/MS based lipid mediator profiling. (A) OPLS-DA analysis of plasma SPM concentrations. Colored spherical areas display 95% confidence region of respective incubations. […] Results for A, B are representative of n=6 donors from three distinct experiments. […] Blood was then collected after 1 hour and SPM concentrations were determined using LC-MS/MS based lipid mediator profiling (D) oPLS-DA analysis of plasma SPM concentrations. Colored areas display 95% confidence region of respective incubations. […] Results are representative of n=4 mice per group and experiments were conducted on two distinct occasions.
Incubations were quenched and SPM were identified and quantified using LC-MS/MS-based lipid mediator profiling. Results are mean±SEM. n=6 volunteers per group.
Plasma was obtained from peripheral blood of healthy volunteers, patients and mouse following centrifugation at 1500×g for 10 min at room temperature. Paws were collected and immediately transferred to liquid nitrogen prior to homogenization in 1 ml ice cold MeOH and homogenized using a glass dounce. All samples for LC-MS/MS-based profiling were extracted using solid-phase extraction columns as in Walker, M. E., Souza, P. R., Colas, R. A. & Dalli, J. “13-Series resolvins mediate the leukocyte-platelet actions of atorvastatin and pravastatin in inflammatory arthritis.” FASEB J 31, 3636-3648 (2017), the contents of which are incorporated herein by reference. Prior to sample extraction, deuterated internal standards, representing each region in the chromatographic analysis (500 pg each) were added to facilitate quantification. Samples were kept at −20° C. for a minimum of 45 min to allow protein precipitation. Supernatants were subjected to solid phase extraction, methyl formate fraction collected, brought to dryness and suspended in phase (methanol/water, 1:1, vol/vol) for injection on a Shimadzu LC-20AD HPLC and a Shimadzu SIL-20AC autoinjector, paired with a QTrap 5500 or QTrap 6500 plus (Sciex). An Agilent Poroshell 120 EC-C18 column (100 mm×4.6 mm×2.7 μm) was kept at 50° C. and mediators eluted using a mobile phase consisting of methanol/water/acetic acid of 20:80:0.01 (vol/vol/vol) that was ramped to 50:50:0.01 (vol/vol/vol) over 0.5 min and then to 80:20:0.01 (vol/vol/vol) from 2 min to 11 min, maintained till 14.5 min and then rapidly ramped to 98:2:0.01 (vol/vol/vol) for the next 0.1 min. This was subsequently maintained at 98:2:0.01 (vol/vol/vol) for 5.4 min, and the flow rate was maintained at 0.5 ml/min. QTrap 5500 or QTrap 6500 plus were operated using a multiple reaction monitoring method as in Walker, M. E., Souza, P. R., Colas, R. A. & Dalli, J. “13-Series resolvins mediate the leukocyte-platelet actions of atorvastatin and pravastatin in inflammatory arthritis.” FASEB J 31, 3636-3648 (2017), the contents of which are incorporated herein by reference. Each lipid mediator was identified using established criteria including matching retention time to synthetic or authentic standards and at least 6 diagnostic ions (Walker, M. E., Souza, P. R., Colas, R. A. & Dalli, J. “13-Series resolvins mediate the leukocyte-platelet actions of atorvastatin and pravastatin in inflammatory arthritis.” FASEB J 31, 3636-3648 (2017), the contents of which are incorporated herein by reference).

[3] = system: inflammatory arthritis in wild type (WT) mice; assay: K/BxN serum inflammatory arthritis in wild type mice treated with MTX; format: in vivo
Protocol: as §1, §2, §3

[4] = Alox15-/- mice, MTX 25 mg/kg i.p. days 3, 5 and 7
[5] = MTX 25 mg/kg i.p. days 3, 5 and 7

## CN(Cc1cnc2nc(N)nc(N)c2n1)c1ccc(C(=O)N[C@@H](CCC(=O)O)C(=O)O)cc1 [MTX, Methotrexate]
[1]; [4]
  disease activity: no longer regulated
  weight loss: no longer regulated
[1]; Alox15-/- mice, day 8, LC-MS/MS
  peripheral blood and circulating eicosanoid concentrations: lost and no longer regulated
[1]; Alox15-/- mice, day 8, flow cytometry
  leukocyte trafficking: no longer regulated
[1]; mice lacking the ALOX15 enzyme
  protective actions of MTX: lost
[2]
  mediators from the DHA, n-3 DPA and EPA bioactive metabolomes including PDX, RvD1 and RvE3: upregulation
  plasma SPM concentrations: upregulates; also recorded: increase
[2]; n=6
  plasma 4S,14S-diHDHA concentration, Mean ± SEM: 2.82 ± 0.56
  plasma 5S,15S-diHETE concentration, Mean ± SEM: 5.32 ± 0.43
  plasma 7S,14S-diHDHA concentration, Mean ± SEM: 0.00 ± 0.00
  plasma 10S,17S-diHDPA concentration, Mean ± SEM: 0.55 ± 0.16
  plasma 13,14-dehydro-15-oxo-LXA4 concentration, Mean ± SEM: 82.74 ± 32.78
  plasma 14-oxo-MaR1 concentration, Mean ± SEM: 0.00 ± 0.00
  plasma 14S-diHDPA concentration, Mean ± SEM: 2.04 ± 0.41
  plasma 15-oxo-LXA4 concentration, Mean ± SEM: 3.78 ± 0.56
  plasma 15R-LXB4 concentration, Mean ± SEM: 2.13 ± 0.45
  plasma 17R-PD1 concentration, Mean ± SEM: 0.96 ± 0.39
  plasma 17R-RvD1 concentration, Mean ± SEM: 7.50 ± 1.97
  plasma 17R-RvD3 concentration, Mean ± SEM: 2.68 ± 0.67
  plasma 22-OH-MaR1 concentration, Mean ± SEM: 18.44 ± 4.31
  plasma 22-OH-PD1 concentration, Mean ± SEM: 7.86 ± 2.61
  plasma LXA4 concentration, Mean ± SEM: 0.55 ± 0.10
  plasma LXB4 concentration, Mean ± SEM: 13.42 ± 2.93
  plasma MaR1 concentration, Mean ± SEM: 24.53 ± 3.12
  plasma MaR1n-3 DPA concentration, Mean ± SEM: 1.09 ± 0.29
  plasma MaR2 concentration, Mean ± SEM: 0.00 ± 0.00
  plasma MaR2n-3 DPA concentration, Mean ± SEM: 7.97 ± 0.87
  plasma PD1 concentration, Mean ± SEM: 2.11 ± 0.24
  plasma PD1n-3 DPA concentration, Mean ± SEM: 0.34 ± 0.10
  plasma PD2n-3 DPA concentration, Mean ± SEM: 3.01 ± 1.23
  plasma PDx concentration, Mean ± SEM: 1.55 ± 0.22
  plasma RvD1 concentration, Mean ± SEM: 9.09 ± 1.13
  plasma RvD1n-3 DPA concentration, Mean ± SEM: 5.43 ± 1.10
  plasma RvD2 concentration, Mean ± SEM: 0.32 ± 0.13
  plasma RvD2n-3 DPA concentration, Mean ± SEM: 3.58 ± 1.16
  plasma RvD3 concentration, Mean ± SEM: 3.57 ± 1.38
  plasma RvD4 concentration, Mean ± SEM: 1.44 ± 0.59
  plasma RvD5 concentration, Mean ± SEM: 1.05 ± 0.22
  plasma RvD5n-3 DPA concentration, Mean ± SEM: 1.26 ± 0.24
  plasma RvD6 concentration, Mean ± SEM: 1.07 ± 0.21
  plasma RvE1 concentration, Mean ± SEM: 1.15 ± 0.32
  plasma RvE2 concentration, Mean ± SEM: 3.82 ± 1.15
  plasma RvE3 concentration, Mean ± SEM: 4.49 ± 0.23
  plasma RvT1 concentration, Mean ± SEM: 9.18 ± 2.50
  plasma RvT2 concentration, Mean ± SEM: 1.63 ± 0.35
  plasma RvT3 concentration, Mean ± SEM: 0.60 ± 0.24
  plasma RvT4 concentration, Mean ± SEM: 0.36 ± 0.15
[3]; [5]
  paw edema: decrease
  weight loss: improvement
[3]; MTX 25 mg/kg i.p. days 3, 5 and 7, 26-point score
  clinical scores: significant reduction
[3]; day 8, flow cytometry
  number of eosinophils, neutrophils, monocytes and macrophages recruited to the joint: decrease
[3]; plasma and joints, day 8, LC-MS/MS
  inflammatory eicosanoid concentrations: regulates; also recorded: reduction
